In patent US5378689A, “Peptides having renin inhibitory activity, their preparation and use” (Sankyo Company, Limited, priority 1989, dated 1995):

Molecular target: T1, human renin (Homo sapiens, UniProt P00797)
T1 sequence (P00797 67-406): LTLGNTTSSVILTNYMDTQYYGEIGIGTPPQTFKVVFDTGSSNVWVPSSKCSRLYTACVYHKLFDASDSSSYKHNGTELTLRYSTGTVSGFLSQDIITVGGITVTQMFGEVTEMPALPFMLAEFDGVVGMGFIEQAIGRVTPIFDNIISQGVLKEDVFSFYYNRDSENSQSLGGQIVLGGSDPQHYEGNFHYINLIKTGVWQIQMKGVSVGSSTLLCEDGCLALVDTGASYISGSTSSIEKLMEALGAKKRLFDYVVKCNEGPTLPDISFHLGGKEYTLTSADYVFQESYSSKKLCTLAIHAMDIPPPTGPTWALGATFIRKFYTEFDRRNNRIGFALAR
Experiment: Inhibition of renin activity (human renin, sheep angiotensinogen, remaining angiotensin I assayed)
Format: biochemical
Conditions: 1×10^-7 M test compound, pH 7.3, 37° C., 10 minutes, mean of 3 or 4 experiments; for inhibition at 0.1 µM: read-out: Inhibitory activity (%) Against Human Renin (1 × 10^-7 M)
Method: The ability of various compounds of the invention to inhibit the activity of renin was determined according to the following method, which follows essentially the procedure of Kokubu et al. [Hypertension, 5, 191-197 (1983)].
Specifically, each test compound was dissolved in 60% v/v aqueous ethanol. Human renin activity in the presence and absence of each compound was measured using sheep angiotensinogen. The total volume of 1 ml of assay mixture contained 0.1 mole/liter phosphate buffer (pH 7.3), human renin (equivalent to 0.5 ng angiotensin I per ml per minute), sheep angiotensinogen (equivalent to 200 ng angiotensin I), 1×10^-7 M of the test compound, 6% v/v ethanol and angiotensinase inhibitors (10 mmole/liter sodium ethylenediaminetetraacetate and 3.4 mmole/liter 8-hydroxyquinoline). The mixture was allowed to react for 10 minutes at 37° C., and then the reaction was stopped by placing the reaction tube in a boiling water bath for 5 minutes. The mixture was then centrifuged and the supernatant (0.05-0.1 ml) was used to assay remaining angiotensin I.
An identical experiment was carried out, as a control, except that the test compound was omitted. From the values obtained were calculated the % inhibition of renin activity achieved by each test compound. The results are shown in the following Table 2, in which the compounds of the invention are identified by the numbers of the Examples given hereafter in which are described their preparation. The values given are the mean of 3 or 4 experiments.

## CNC(=O)[C@@H](C[C@H](O)[C@H](CC1CCCCC1)NC(=O)[C@H](Cc1cscn1)NC(=O)[C@@H](CC(=O)N1CCOCC1)Cc1ccccc1)C(C)C [Example 1, (2S, 4S, 5S)-5-{N-[2(R)-Benzyl-3-(morpholinocarbonyl)-propionyl]-3-(4-thiazolyl)-L-alanyl}amino-6-cyclohexyl-4-hydroxy-2-isopropyl-N-methylhexanamide]
  inhibition at 0.1 µM: 95.2%

## CCCCNC(=O)[C@@H](C[C@H](O)[C@H](CC1CCCCC1)NC(=O)[C@H](Cc1cscn1)NC(=O)[C@@H](CC(=O)N1CCOCC1)Cc1ccccc1)C(C)C [Example 2, (2S, 4S, 5S)-5-{N-[2(R)-Benzyl-3-(morpholinocarbonyl)-propionyl]-3-(4-thiazolyl)-L-alanyl}amino-N-butyl-6-cyclohexyl-4-hydroxy-2-isopropylhexanamide]
  inhibition at 0.1 µM: 96%

## CNC(=O)[C@@H](C[C@H](O)[C@H](CC1CCCCC1)NC(=O)[C@H](Cc1cscn1)NC(=O)[C@@H](CC(=O)N1CCOCC1)Cc1ccc(OC)cc1)C(C)C [Example 3, (2S, 4S, 5S)-5-{N-[2(R)-(4-Methoxybenzyl)-3-(morpholinocarbonyl)propionyl]-3-(4-thiazolyl)-L-alanyl}amino-6-cyclohexyl-4-hydroxy-2-isopropyl-N-methylhexanamid]
  inhibition at 0.1 µM: 93.1%

## CCCCNC(=O)[C@@H](C[C@H](O)[C@H](CC1CCCCC1)NC(=O)[C@H](Cc1cscn1)NC(=O)[C@@H](CC(=O)N1CCOCC1)Cc1ccc(OC)cc1)C(C)C [Example 4]
  Inhibitory activity (%) Against Human Renin (1 × 10^-7 M): 96.9%

## CNC(=O)[C@H](C)C[C@H](O)[C@H](CC1CCCCC1)NC(=O)[C@H](Cc1cscn1)NC(=O)[C@@H](CC(=O)N1CCOCC1)Cc1ccccc1 [Example 5, (2R, 4S, 5S)-5-{N-[2(R)-Benzyl-3-(morpholinocarbonyl)-propionyl]-3-(4-thiazolyl)-L-alanyl}amino-6-cyclohexyl-4-hydroxy-2,N-dimethylhexanamide]
  inhibition at 0.1 µM: 95.6%

## CCCCNC(=O)[C@H](C)C[C@H](O)[C@H](CC1CCCCC1)NC(=O)[C@H](Cc1cscn1)NC(=O)[C@@H](CC(=O)N1CCOCC1)Cc1ccccc1 [Example 6]
  Inhibitory activity (%) Against Human Renin (1 × 10^-7 M): 96.1%

## CCCCNC(=O)[C@H](C)C[C@H](O)[C@H](CC1CCCCC1)NC(=O)[C@H](Cc1cscn1)NC(=O)[C@@H](CC(=O)N(C)Cc1ccccc1)Cc1ccccc1 [Example 8, (2R, 4S, 5S)-5-{N-[2(R)-Benzyl-3-(N-benzyl-N-methylaminocarbonyl)propionyl]-3-(4-thiazolyl)-L-alanyl}-amino-N-butyl-6-cyclohexyl-4-hydroxy-2-methylhexanamide]
  Inhibitory activity (%) Against Human Renin (1 × 10^-7 M): 96.2%

## CCCCNC(=O)[C@H](C)C[C@H](O)[C@H](CC1CCCCC1)NC(=O)[C@H](Cc1cscn1)NC(=O)[C@@H](CC(=O)N(C)Cc1ccccc1)Cc1ccc(OC)cc1 [Example 11, (2R, 4S, 5S)-N-Butyl-6-cyclohexyl-4-hydroxy-5-{N-[2(R)-(4-methoxybenzyl)-3-(N-benzyl-N-methylaminocarbonyl)-propionyl]-3-(4-thiazolyl)-L-alanyl}amino-2-methylhexanamide]
  inhibition at 0.1 µM: 91.6%

## CNC(=O)[C@H](C)C[C@H](O)[C@H](CC1CCCCC1)NC(=O)[C@H](Cc1cscn1)NC(=O)[C@@H](CC(=O)N(C)Cc1ccccc1)Cc1ccccc1 [Example 14, (2R, 4S, 5S )-5-{N-[2(R)-Benzyl-3-(N-benzyl-N-methylaminocarbonyl)propionyl]-3-(4-thiazolyl)-L-alanyl}-amino-6-cyclohexyl-4-hydroxy-2,N-dimethylhexanamide]
  Inhibitory activity (%) Against Human Renin (1 × 10^-7 M): 95.7%

## CCCCNC(=O)[C@@H](C[C@H](O)[C@H](CC1CCCCC1)NC(=O)[C@H](Cc1cscn1)NC(=O)[C@@H](CC(=O)N(C)Cc1ccccc1)Cc1ccccc1)C(C)C [Example 16, (2S, 4S, 5S)-5-{N-[2(R)-Benzyl-3-(N-benzyl-N-methylaminocarbonyl)propionyl]-3-(4-thiazolyl)-L-alanyl}amino-N-butyl-6-cyclohexyl-4-hydroxy-2-isopropylhexanamide]
  inhibition at 0.1 µM: 94.8%
